Data: paper PMC11460631, “Inhibition of transient receptor potential vanilloid 3 channels by antimalarial hydroxychloroquine alleviates TRPV3-dependent dermatitis” (The Journal of Biological Chemistry, 2024)

Molecular target: T1, TRPV3 (Homo sapiens, UniProt Q8NET8)
T1 construct: YFP or GFP; expressed in transfected cells; host or cells: HEK293T
T1 sequence (Q8NET8 1-790): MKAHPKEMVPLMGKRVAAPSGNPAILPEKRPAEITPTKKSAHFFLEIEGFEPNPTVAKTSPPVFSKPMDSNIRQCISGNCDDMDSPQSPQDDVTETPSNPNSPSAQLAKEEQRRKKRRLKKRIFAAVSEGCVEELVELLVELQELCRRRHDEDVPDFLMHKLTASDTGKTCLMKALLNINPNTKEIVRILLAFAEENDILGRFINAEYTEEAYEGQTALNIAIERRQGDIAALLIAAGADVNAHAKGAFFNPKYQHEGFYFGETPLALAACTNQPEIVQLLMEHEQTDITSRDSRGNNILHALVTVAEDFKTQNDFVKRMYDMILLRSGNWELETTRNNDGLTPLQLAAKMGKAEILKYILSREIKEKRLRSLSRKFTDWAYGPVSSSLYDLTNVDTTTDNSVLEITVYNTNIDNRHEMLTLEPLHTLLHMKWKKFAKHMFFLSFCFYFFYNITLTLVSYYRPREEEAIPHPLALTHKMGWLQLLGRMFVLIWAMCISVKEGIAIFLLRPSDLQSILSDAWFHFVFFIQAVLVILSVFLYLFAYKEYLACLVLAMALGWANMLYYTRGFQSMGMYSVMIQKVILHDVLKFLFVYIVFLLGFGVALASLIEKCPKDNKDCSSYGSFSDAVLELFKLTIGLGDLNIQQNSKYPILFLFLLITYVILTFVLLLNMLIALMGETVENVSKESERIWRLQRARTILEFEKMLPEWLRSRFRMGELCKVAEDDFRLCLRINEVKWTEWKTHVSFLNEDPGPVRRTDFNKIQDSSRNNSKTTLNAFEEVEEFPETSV
Assay: Single-channel recordings of TRPV3 in the inside-out configuration
Type: cell-based
Settings: −80 mV
Method: HEK293T cells are cultured using Dulbecco's modified Eagle's medium containing 10% fetal bovine serum and 1% penicillin-streptomycin in a cell incubator with 5% CO2 at 37 °C. Plasmids of murine TRPV1, TRPV4, TRPM8, and human TRPV3, TRPA1 are labeled with YFP or GFP as indicators for subsequent electrophysiological recordings. Complementary DNA constructs of ion channels were transiently transfected with Lipofectamine 3000 (Invitrogen). And 12 to 18 h after transient transfection, electrophysiological recordings were performed.
Patch-clamp recordings were carried out with a HEKA EPC10 amplifier controlled by PatchMaster software (HEKA; https://www.heka.com/products/products_main.html#soft_pm) ([36]). Patch pipettes were prepared from borosilicate glass and fire-polished to the resistance of 3 to 8 MΩ by P-97 puller for whole-cell recordings. For single-channel recordings, patch pipettes were fire-polished to a higher resistance of 6 to 10 MΩ. Both bath solution and pipette solution contained 130 mM NaCl, 10 mM glucose, 0.2 mM EDTA, and 3 mM Hepes and were adjusted to pH 7.2 to 7.4 with NaOH. Whole-cell recordings and single-channel recordings were performed at ± 80 mV. The current was sampled at 10 kHz and filtered at 2.9 kHz. All recordings were performed at room temperature (25 °C). A gravity-driven system (RSC-200, Bio-Logic) with freely rotated perfusion tubes was used for the perfusion of ligands. Bath and ligand solutions were delivered through separate tubes to minimize the mixing of solutions. Patch pipette holding cells were placed in front of the perfusion tube outlet for perfusion. Igor Pro versions 5.05 and 9.05 (WaveMetrics; https://www.wavemetrics.com/products/igorpro) were used to analyze the data.

- TRPV3 channel open probability (Po) (50 μM HCQ with 1 mM 2-APB): 0.50 ± 0.03
- TRPV3 channel open probability (Po) (100 μM HCQ with 1 mM 2-APB): 0.13 ± 0.04
- single-channel conductance (HCQ with 1 mM 2-APB, HCQ concentration not stated in the sentence (50 and 100 μM tested)): 37.97 ± 2.96 pS
Compound: CCN(CCO)CCCC(C)Nc1ccnc2cc(Cl)ccc12 (stereo not drawn) [HCQ, hydroxychloroquine]
